# Reference: patent US9388202B2, “Luminescent probes for biological labeling and imaging, method for preparing same” (CENTRE NATIONAL DE LA RECHERCHE SCIENTIFIQUE, priority 2011, dated 2016)
# “And” between values parts separate entries of the source, which are not always exact repeats. Equal values may be shown once.
# Tests used:
# Assay type in all cases: physicochemical
# [1] = Emission properties: luminescence lifetime and quantum luminescence yield in water and D2O; details: for Emission τ (luminescence lifetime): error estimated ±5%; for Emission φ (quantum luminescence yield): error estimated ±15%
# Text: Their optical luminescence properties, the luminescence lifetimes and the brightness properties are exceptional, with quantum yields of about 38% for Tb, 18% for Eu and lifetimes of the excited states of greater than 3 milliseconds for the Tb(I-3) and Tb(I-4) complexes.
# By way of example, all of the absorption and emission properties of the terbium and europium complexes synthesized from the ligands (I-1) to (I-4) in accordance with the invention are summarized in Table 1 below:
# The parameters φ and τ represent, respectively, the quantum luminescence yields and the luminescence lifetimes. They may be measured in water and in D2O.
# [2] = Absorption properties of the terbium and europium complexes in TRIS/HCl buffer; details: 0.01M TRIS/HCl buffer at pH = 7.0
# Text: By way of example, all of the absorption and emission properties of the terbium and europium complexes synthesized from the ligands (I-1) to (I-4) in accordance with the invention are summarized in Table 1 below: […]
# [3] = Stability of terbium complexes (luminescence lifetime) in buffers with ligands capable of decomplexing the lanthanide ions; details: for stability: various aqueous media
# Experimental: By way of example, the stability of the terbium complexes synthesized from the ligands (I-1) to (I-4) in accordance with the invention is given in Table 2 below. Various buffers in the presence of ligands capable of decomplexing the lanthanide ions were tested. For comparative purposes, Table 2 also gives the stability of a terbium complex TbL4 of the prior art corresponding to the following formula: […]
# [4] = Tris 50 mM - Serum 50%, pH = 7.0
# [5] = Tris 0.1M - EDTA 10 mM, pH = 7.0
# [6] = Tris 0.1M - KF 400 mM, pH = 7.0
Compound,Emission τ (luminescence lifetime) ([1]; D2O) [ms],Emission φ (quantum luminescence yield) ([1]; D2O) [%],Emission τ (luminescence lifetime) ([1]; H2O) [ms],Emission φ (quantum luminescence yield) ([1]; H2O) [%],Absorption λabs [2],"τ ([3]; H2O, estimated error ±5%) [ms]","τ ([3]; Phosphate 0.1M, pH = 7.0) [ms]","τ [3, 4] [ms]","τ [3, 5] [ms]","τ [3, 6] [ms]","τ ([3]; Tris 0.1M, pH = 7.0) [ms]",stability [3]
CCOP(=O)([O-])CN(Cc1cc(C#Cc2ccc(C(=O)NCCCC(=O)[O-])c3ccccc23)cc(CN(CP(=O)([O-])OCC)CP(=O)([O-])OCC)n1)CP(=O)([O-])OCC.[Na+].[Na+].[Tb+3] [Tb(I-3)],3.4,42,3.1,38,272 nm and 353 nm,3.1,2.9,3.0,3.0,2.9,3.0,excellent stability
CCOP(=O)([O-])CN(Cc1cc(C#Cc2ccc(C(=O)NCCCC(=O)[O-])c3ccccc23)cc(CN(CP(=O)([O-])OCC)CP(=O)([O-])OCC)n1)CP(=O)([O-])OCC.[Eu+3].[Na+].[Na+] [Eu(I-3)],2.5,22,1.7,18,270 nm and 352 nm,–,–,–,–,–,–,–
CCOP(=O)([O-])CN(CC(=O)[O-])Cc1cc(C#Cc2ccc(C#CCCCCC(=O)[O-])c3ccccc23)cc(CN(CC(=O)[O-])CP(=O)([O-])OCC)n1.[Na+].[Na+].[Tb+3] [Tb(I-2)],3.2,45,2.6,32,270 nm and 349 nm,2.6,2.5,2.4,2.4,2.5,2.5,–
CCOP(=O)([O-])CN(CC(=O)[O-])Cc1cc(C#Cc2ccc(C#CCCCCC(=O)[O-])c3ccccc23)cc(CN(CC(=O)[O-])CP(=O)([O-])OCC)n1.[Eu+3].[Na+].[Na+] [Eu(I-2)],2.4,26,1.6,17,265 nm and 347 nm,–,–,–,–,–,–,–
CCOP(=O)([O-])CN(CC(=O)[O-])Cc1cc(C#Cc2ccc(C(=O)NCCCC(=O)[O-])c3ccccc23)cc(CN(CC(=O)[O-])CP(=O)([O-])OCC)n1.[Eu+3].[Na+].[Na+] [Eu(I-1)],2.4,24,1.5,16,266 nm and 349 nm,–,–,–,–,–,–,–
CCOP(=O)([O-])CN(Cc1cc(C#Cc2ccc(C#CCCCCC(=O)[O-])c3ccccc23)cc(CN(CP(=O)([O-])OCC)CP(=O)([O-])OCC)n1)CP(=O)([O-])OCC.[Na+].[Na+].[Tb+3] [Tb(I-4)],3.5,41,3.2,36,272 nm and 352 nm,3.2,3.0,3.0,3.1,3.0,3.1,excellent stability
CCOP(=O)([O-])CN(Cc1cc(C#Cc2ccc(C#CCCCCC(=O)[O-])c3ccccc23)cc(CN(CP(=O)([O-])OCC)CP(=O)([O-])OCC)n1)CP(=O)([O-])OCC.[Eu+3].[Na+].[Na+] [Eu(I-4)],2.5,24,1.6,17,268 nm and 350 nm,–,–,–,–,–,–,–
CCOP(=O)([O-])CN(CC(=O)[O-])Cc1cc(C#Cc2ccc(C(=O)NCCCC(=O)[O-])c3ccccc23)cc(CN(CC(=O)[O-])CP(=O)([O-])OCC)n1.[Na+].[Na+].[Tb+3] [Tb(I-1)],3.1,46,2.8,35,268 nm and 348 nm,2.8,2.7,2.6,2.6,2.6,2.7,–
